Assay results as given in patent US20240158446A1, “CYCLIC COMPOUND HAVING SELECTIVE INHIBITORY ACTION ON KRAS OVER HRAS AND NRAS” (CHUGAI SEIYAKU KABUSHIKI KAISHA, priority 2021, published 2024).
Where a SMILES comes first, the peptide text is derived from it. Bridges are numbered along the chain shown (N, C = ends). [ ]: non-standard residue; d: D form. The star is where a group is joined. hPhe(3-Cl-4-CF3) = N[C@@H](CCc1ccc(C(F)(F)F)c(Cl)c1)C(=O)O; NPrPhe(4-CF3) = CCCN[C@@H](Cc1ccc(C(F)(F)F)cc1)C(=O)O; NMeGly(cPent) = CN[C@H](C(=O)O)C1CCCC1; Pro(4,4-F2) = O=C(O)[C@@H]1CC(F)(F)CN1; Pro(4,4-Me2) = CC1(C)CN[C@H](C(=O)O)C1; Pro(4S-Me) = C[C@@H]1CN[C@H](C(=O)O)C1; NMeD = CN[C@@H](CC(=O)O)C(=O)O; NMeL = CN[C@@H](CC(C)C)C(=O)O; Morpholide = C1CN(*)CCO1; Ac5c = NC1(C(=O)O)CCCC1; Aze = O=C(O)[C@@H]1CCN1; Ac4c = NC1(C(=O)O)CCC1; Sar = CNCC(=O)O

What was measured:
[1] = test system: human lung cancer strain NCI-H441;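 also: cell proliferation inhibition after four days measured by CellTiter-Glo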
[2] = target: GDP-bound NRAS wild-type protein (Homo sapiens, UniProt P01111); test: Binding to NRAS by surface plasmon resonance (SPR), Single Cycle Kinetics; details: SPR, GDP-bound NRAS wild-type protein vs GDP-bound KRAS wild-type protein
[3] = target: GDP-bound HRAS wild-type protein (Homo sapiens, UniProt P01112); test: Binding to HRAS by surface plasmon resonance (SPR), Single Cycle Kinetics; details: SPR, GDP-bound HRAS wild-type protein vs GDP-bound KRAS wild-type protein
Chain of GDP-bound HRAS wild-type protein (P01112 whole entry): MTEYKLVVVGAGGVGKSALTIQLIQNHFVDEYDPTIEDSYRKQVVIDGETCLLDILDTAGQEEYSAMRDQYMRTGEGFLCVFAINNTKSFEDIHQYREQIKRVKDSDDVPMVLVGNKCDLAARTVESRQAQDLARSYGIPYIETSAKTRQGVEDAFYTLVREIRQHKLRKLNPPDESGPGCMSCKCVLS

Chain of GDP-bound NRAS wild-type protein (P01111 whole entry): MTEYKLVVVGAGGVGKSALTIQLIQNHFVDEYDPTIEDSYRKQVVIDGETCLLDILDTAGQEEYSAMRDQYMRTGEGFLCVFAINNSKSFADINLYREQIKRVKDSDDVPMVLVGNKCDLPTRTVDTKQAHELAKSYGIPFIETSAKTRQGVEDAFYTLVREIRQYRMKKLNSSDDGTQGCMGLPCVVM

| SMILES | IC50 [1] [nM] | NRAS/KRAS (ratio of KD value for NRAS to KD value for KRAS) [2] | HRAS/KRAS (ratio of KD value for HRAS to KD value for KRAS) [3] | NRAS/KRAS (ratio of KD value with respect to NRAS to KD value with respect to KRAS) [2] | HRAS/KRAS (ratio of KD value with respect to HRAS to KD value with respect to KRAS) [3] |
| --- | --- | --- | --- | --- | --- |
| CCCN1C(=O)CN(C)C(=O)[C@@H]2CCN2C(=O)[C@H]([C@@H](C)CC)NC(=O)[C@H](CC(C)C)N(C)C(=O)C[C@@H](C(=O)N2CCOCC2)N(C)C(=O)[C@H](C2CCCC2)N(C)C(=O)C2(CCC2)NC(=O)[C@@H]2CCCN2C(=O)[C@H](CCc2ccc(C(F)(F)F)c(Cl)c2)NC(=O)CN(C)C(=O)[C@@H]1Cc1ccc(C(F)(F)F)cc1 [PP0402] ([NMeL]I[Aze][Sar][NPrPhe(4-CF3)][Sar][hPhe(3-Cl-4-CF3)]P[Ac4c][NMeGly(cPent)][NMeD]-Morpholide; lactam N-11) | 58.1 | B (a compound having 3 or more and less than 10 is denoted as B) | C (A compound having a KD ratio of 0.1 or more and less than 3 is denoted as C) | – | – |
| CCCN1C(=O)CN(C)C(=O)[C@@H]2CCN2C(=O)[C@H]([C@@H](C)CC)NC(=O)[C@H](CC(C)C)N(C)C(=O)C[C@@H](C(=O)N2CCOCC2)N(C)C(=O)[C@H](C2CCCC2)N(C)C(=O)C2(CCC2)NC(=O)[C@@H]2CC(F)(F)CN2C(=O)[C@H](CCc2ccc(C(F)(F)F)c(Cl)c2)NC(=O)CN(C)C(=O)[C@@H]1Cc1ccc(C(F)(F)F)cc1 [PP0404] ([NMeL]I[Aze][Sar][NPrPhe(4-CF3)][Sar][hPhe(3-Cl-4-CF3)][Pro(4,4-F2)][Ac4c][NMeGly(cPent)][NMeD]-Morpholide; lactam N-11) | 21.7 | B (a compound having 3 or more and less than 10 is denoted as B) | C (A compound having a KD ratio of 0.1 or more and less than 3 is denoted as C) | – | – |
| CCCN1C(=O)CN(C)C(=O)[C@@H]2CCN2C(=O)[C@H]([C@@H](C)CC)NC(=O)[C@H](CC(C)C)N(C)C(=O)C[C@@H](C(=O)N(C)C)N(C)C(=O)[C@H](C2CCCC2)N(C)C(=O)C2(CCCC2)NC(=O)[C@@H]2CCCN2C(=O)[C@H](CCc2ccc(C(F)(F)F)c(Cl)c2)NC(=O)CN(C)C(=O)[C@@H]1Cc1ccc(C(F)(F)F)cc1 [PP0429] ([NMeL]I[Aze][Sar][NPrPhe(4-CF3)][Sar][hPhe(3-Cl-4-CF3)]P[Ac5c][NMeGly(cPent)][NMeD]-NMe2; lactam N-11) | 12.4 | – | – | B (a compound having 3 or more and less than 10 is denoted as B) | C (A compound having a KD ratio of 0.1 or more and less than 3 is denoted as C) |
| CCCN1C(=O)CN(C)C(=O)[C@@H]2CCN2C(=O)[C@H]([C@@H](C)CC)NC(=O)[C@H](CC(C)C)N(C)C(=O)C[C@@H](C(=O)N(C)C)N(C)C(=O)[C@H](C2CCCC2)N(C)C(=O)C2(CCCC2)NC(=O)[C@@H]2CC(F)(F)CN2C(=O)[C@H](CCc2ccc(C(F)(F)F)c(Cl)c2)NC(=O)CN(C)C(=O)[C@@H]1Cc1ccc(C(F)(F)F)cc1 [PP0431] ([NMeL]I[Aze][Sar][NPrPhe(4-CF3)][Sar][hPhe(3-Cl-4-CF3)][Pro(4,4-F2)][Ac5c][NMeGly(cPent)][NMeD]-NMe2; lactam N-11) | 9.9 | – | – | B (a compound having 3 or more and less than 10 is denoted as B) | C (A compound having a KD ratio of 0.1 or more and less than 3 is denoted as C) |
| CCCN1C(=O)CN(C)C(=O)[C@@H]2CCN2C(=O)[C@H]([C@@H](C)CC)NC(=O)[C@H](CC(C)C)N(C)C(=O)C[C@@H](C(=O)N(C)C)N(C)C(=O)[C@H](C2CCCC2)N(C)C(=O)C2(CCC2)NC(=O)[C@@H]2CC(F)(F)CN2C(=O)[C@H](CCc2ccc(C(F)(F)F)c(Cl)c2)NC(=O)CN(C)C(=O)[C@@H]1Cc1ccc(C(F)(F)F)cc1 [PP0432] ([NMeL]I[Aze][Sar][NPrPhe(4-CF3)][Sar][hPhe(3-Cl-4-CF3)][Pro(4,4-F2)][Ac4c][NMeGly(cPent)][NMeD]-NMe2; lactam N-11) | 10.7 | – | – | B (a compound having 3 or more and less than 10 is denoted as B) | B (a compound having 3 or more and less than 10 is denoted as B) |
| CCCN1C(=O)CN(C)C(=O)[C@@H]2CCN2C(=O)[C@H]([C@@H](C)CC)NC(=O)[C@H](CC(C)C)N(C)C(=O)C[C@@H](C(=O)N2CCOCC2)N(C)C(=O)[C@H](C2CCCC2)N(C)C(=O)C2(CCCC2)NC(=O)[C@@H]2CC(C)(C)CN2C(=O)[C@H](CCc2ccc(C(F)(F)F)c(Cl)c2)NC(=O)CN(C)C(=O)[C@@H]1Cc1ccc(C(F)(F)F)cc1 [PP0452] ([NMeL]I[Aze][Sar][NPrPhe(4-CF3)][Sar][hPhe(3-Cl-4-CF3)][Pro(4,4-Me2)][Ac5c][NMeGly(cPent)][NMeD]-Morpholide; lactam N-11) | 34.1 | – | – | B (a compound having 3 or more and less than 10 is denoted as B) | B (a compound having 3 or more and less than 10 is denoted as B) |
| CCCN1C(=O)CN(C)C(=O)[C@@H]2CCN2C(=O)[C@H]([C@@H](C)CC)NC(=O)[C@H](CC(C)C)N(C)C(=O)C[C@@H](C(=O)N2CCOCC2)N(C)C(=O)[C@H](C2CCCC2)N(C)C(=O)C2(CCCC2)NC(=O)[C@@H]2C[C@H](C)CN2C(=O)[C@H](CCc2ccc(C(F)(F)F)c(Cl)c2)NC(=O)CN(C)C(=O)[C@@H]1Cc1ccc(C(F)(F)F)cc1 [PP0453] ([NMeL]I[Aze][Sar][NPrPhe(4-CF3)][Sar][hPhe(3-Cl-4-CF3)][Pro(4S-Me)][Ac5c][NMeGly(cPent)][NMeD]-Morpholide; lactam N-11) | 20.3 | – | – | B (a compound having 3 or more and less than 10 is denoted as B) | C (A compound having a KD ratio of 0.1 or more and less than 3 is denoted as C) |
| CC[C@H](C)[C@@H]1NC(=O)[C@H](CC(C)C)N(C)C(=O)C[C@@H](C(=O)N2CCOCC2)N(C)C(=O)[C@H](C2CCCC2)N(C)C(=O)C2(CCCC2)NC(=O)[C@@H]2CCCN2C(=O)[C@H](CCc2ccc(C(F)(F)F)c(Cl)c2)NC(=O)CN(C)C(=O)[C@H](Cc2ccc(C)cc2)N2CC=CC[C@@H](C2=O)N(C)C(=O)CN(C)C1=O [PP0460] | 5.4 | – | – | C (A compound having a KD ratio of 0.1 or more and less than 3 is denoted as C) | C (A compound having a KD ratio of 0.1 or more and less than 3 is denoted as C) |
| CC[C@H](C)[C@@H]1NC(=O)[C@H](CC(C)C)N(C)C(=O)C[C@@H](C(=O)N2CCOCC2)N(C)C(=O)[C@H](C2CCCC2)N(C)C(=O)C2(CCCC2)NC(=O)[C@@H]2CCCN2C(=O)[C@H](CCc2ccc(C(F)(F)F)c(Cl)c2)NC(=O)CN(C)C(=O)[C@H](Cc2ccccc2)N2CC=CC[C@@H](C2=O)N(C)C(=O)CN(C)C1=O [PP0528] | 21.8 | – | – | C (A compound having a KD ratio of 0.1 or more and less than 3 is denoted as C) | C (A compound having a KD ratio of 0.1 or more and less than 3 is denoted as C) |
| CC[C@H](C)[C@@H]1NC(=O)[C@H](CC(C)C)N(C)C(=O)C[C@@H](C(=O)N2CCOCC2)N(C)C(=O)[C@H](C2CCCC2)N(C)C(=O)C2(CCCC2)NC(=O)[C@@H]2CCCN2C(=O)[C@H](CCc2ccc(C(F)(F)F)c(Cl)c2)NC(=O)CN(C)C(=O)[C@H](Cc2ccccc2)N2CCCC[C@@H](C2=O)N(C)C(=O)CN(C)C1=O [PP0529] | 6.5 | – | – | C (A compound having a KD ratio of 0.1 or more and less than 3 is denoted as C) | B (a compound having 3 or more and less than 10 is denoted as B) |
| CC[C@H](C)[C@@H]1NC(=O)[C@H](CC(C)C)N(C)C(=O)C[C@@H](C(=O)N2CCOCC2)N(C)C(=O)[C@H](C2CCCC2)N(C)C(=O)C2(CCCC2)NC(=O)[C@@H]2CCCN2C(=O)[C@H](CCc2ccc(C(F)(F)F)c(Cl)c2)NC(=O)CN(C)C(=O)[C@H](Cc2ccc(F)cc2)N2CCCC[C@@H](C2=O)N(C)C(=O)CN(C)C1=O [PP0530] | 7 | – | – | C (A compound having a KD ratio of 0.1 or more and less than 3 is denoted as C) | B (a compound having 3 or more and less than 10 is denoted as B) |
| CC[C@H](C)[C@@H]1NC(=O)[C@H](CC(C)C)N(C)C(=O)C[C@@H](C(=O)N2CCOCC2)N(C)C(=O)[C@H](C2CCCC2)N(C)C(=O)C2(CCCC2)NC(=O)[C@@H]2CCCN2C(=O)[C@H](CCc2ccc(C(F)(F)F)c(Cl)c2)NC(=O)CN(C)C(=O)[C@H](Cc2ccc(Cl)cc2)N2CCCC[C@@H](C2=O)N(C)C(=O)CN(C)C1=O [PP0532] | 6.9 | – | – | C (A compound having a KD ratio of 0.1 or more and less than 3 is denoted as C) | B (a compound having 3 or more and less than 10 is denoted as B) |
| CC[C@H](C)[C@@H]1NC(=O)[C@H](CC(C)C)N(C)C(=O)C[C@@H](C(=O)N2CCOCC2)NC(=O)[C@H](C2CCCC2)N(C)C(=O)C2(CCCC2)NC(=O)[C@@H]2CCCN2C(=O)[C@H](CCc2cc(F)c(C(F)(F)F)c(F)c2)NC(=O)CN(C)C(=O)[C@H](Cc2ccc(C(F)(F)F)cc2)N2CCCC[C@@H](C2=O)N(C)C(=O)CN(C)C1=O [PP0541] | 83.3 | – | – | B (a compound having 3 or more and less than 10 is denoted as B) | B (a compound having 3 or more and less than 10 is denoted as B) |
